Measurements: patent US9913843B2, “Protein kinase C inhibitors and uses thereof” (Rigel Pharmaceuticals, Inc., priority 2012, dated 2018)
Like-named read-outs stand apart in the source and are kept apart here.

Test system: PKC mediated IL-2 production in human primary T cells
Assay: IL-2 ELISA, human primary T cell, anti CD3+CD28+ (whole cell functional assay for PKC mediated IL-2 production)
Type: cell-based
Experimental: Human primary T cells were prepared as follows. Fresh PBMC's from All Cells (Cat # PB002) were re-suspended in RPMI (RPMI-1640 with L-Glutamine; Mediatech, Inc., Herndon Va., cat. #10-040-CM) with 10% FBS and seeded into flasks and incubated at 37° C. for 2 hours to allow the monocytes to adhere. The non-adherent cells were then centrifuged and re-suspended in RPMI medium containing 40 U/ml IL2 and seeded into a flask pre-coated with 1 μg/ml aCD3 and 5 ug/ml aCD28 (Anti-Human CD3, BD Pharmingen Catalog #555336, Anti-Human CD28, Beckman Coulter Catalog #IM1376). The cells were stimulated for 3-4 days, then transferred to a fresh flask and maintained in RPMI (RPMI-1640 with L-Glutamine; Mediatech, Inc., Herndon Va., cat. #10-040-CM) with 10% FBS and 40 U/ml IL-2.
Human primary T cells (100,000 cells per well) were pre-incubated with or without test compound in RPMI-1640 with L-Glutamine and 10% FBS for 1 hour at 37° C. Cells were then stimulated by transferring them to round-bottom 96-well plates pre-coated with 1 μg/ml aCD3 and 5 μg/ml aCD28. For counter assay, cells were instead stimulated by adding 8× stock solutions of PMA and ionomycin in RPMI-1640 with L-Glutamine and 10% FBS (for final concentrations of 0.5 ng/ml PMA and 0.1 μM ionomycin, both from Calbiochem). Cells were incubated at 37° C. for 24 hours before 100 μL supernatants were harvested for quantification of IL-2 by ELISA using Human IL-2 Duoset ELISA Kit from R and D Systems, Cat. # DY202E.
Compounds 1-156 were tested in a whole cell functional assay for PKC mediated IL-2 production as follows. Human primary T cell isolation and culture: Human primary T cells were prepared as follows. Whole blood was obtained from a healthy volunteer, mixed 1:1 with PBS, layered on to Ficoll Hypaque (Amersham Pharmacia Biotech, Piscataway, N.J., Catalog #17-1440-03) in 2:1 blood/PBS:ficoll ratio and centrifuged for 30 minutes at 4° C. at 1750 rpm. The cells at the serum: ficoll interface were recovered and washed twice with 5 volumes of PBS. These freshly isolated human peripheral blood mononuclear cells were cultured in Yssel's medium containing 40 U/ml IL2 in a flask pre-coated with 1 μg/ml aCD3 and 5 μg/ml aCD28 (Anti-Human CD3, BD Pharmingen Catalog #555336, Anti-Human CD28, Beckman Coulter Catalog #IM1376). The cells were stimulated for 3-4 days, then transferred to a fresh flask and maintained in RPMI (RPMI-1640 with L-Glutamine; Mediatech, Inc., Herndon Va., cat. #10-040-CM) with 10% FBS and 40 U/ml IL-2. The primary T-cells were then washed twice with PBS to remove the IL-2.
Primary T cell stimulation and IL2 ELISA: Human primary T cells (100,000 cells per well) were pre-incubated with or without test compound in Yssel's medium for 1 hour at 37° C. Cells were then stimulated by transferring them to round-bottom 96-well plates pre-coated with 1 μg/ml aCD3 and 5 μg/ml αCD28. For counter assay, cells were instead stimulated by adding 8× stock solutions of PMA and ionomycin in Yssels (for final concentrations of 0.5 ng/ml PMA and 0.1 uM ionomycin, both from Calbiochem). Cells were incubated at 37° C. for 24 hours before 100 μL supernatants were harvested for quantification of IL-2 by ELISA using Human IL-2 Duoset ELISA Kit from R and D Systems, Cat. # DY202E.

[1] = 24 h, human primary T cells stimulated with anti-CD3 + anti-CD28, IL-2 by ELISA, read-out: IC50 for blocking IL-2 production
[2] = human primary T cells stimulated with anti-CD3 + anti-CD28, 24 h, IL-2 by ELISA, 8 pt, read-out: IL2 ELISA, Human primary T cell, anti-CD3 + CD28, 8 pt (IC50)

SMILES | IC50 [1] [µM] | IC50 [2] [µM]
Fc1cc(Nc2ncc(F)c(NC[C@@H]3CCCN4CCCC[C@H]34)n2)cc(S(F)(F)(F)(F)F)c1 [Compound 30, 5-fluoro-N2-(3-pentafluorosulfanyl-5-fluoro-phenyl)-N4-(((1S,9aR)-octahydro-1H-quinolizin-1-yl)methyl)pyrimidine-2,4-diamine] | < 30 | 0.672
Cn1nnn(-c2cc(Nc3ncc(C#N)c(NC[C@@H]4CCCN5CCCC[C@H]45)n3)c(F)cc2OCC(C)(C)O)c1=O [Compound 156, 2-((2-fluoro-4-(2-hydroxy-2-methylpropoxy)-5-(4-methyl-5-oxo-4,5-dihydro-1H-tetrazol-1-yl)phenyl)amino)-4-((((1S,9aR)-octahydro-2H-quinolizin-1-yl)methyl)amino)pyrimidine-5-carbonitrile] | < 30 | 0.0276
Cc1cnc(Nc2ccc(F)c(-n3nnnc3C)c2)nc1NC[C@@H]1CCCN2CCCC[C@H]12 [Compound 62, N2-(4-fluoro-3-(5-methyl-1H-tetrazol-1-yl)phenyl)-N4-(((1S,9aR)-octahydro-1H-quinolizin-1-yl)methyl)-5-methylpyrimidine-2,4-diamine] | < 30 | 1.87
CN(C)c1cnc(Nc2cc(-n3cnnn3)c(C3CC3)cc2F)nc1NC[C@@H]1CCCN2CCCC[C@H]12 [Compound 85, N2-(4-cyclopropyl-2-fluoro-5-(1H-tetrazol-1-yl)phenyl)-N4-(((1S,9aR)-octahydro-1H-quinolizin-1-yl)methyl)-N5,N5-dimethylpyrimidine-2,4,5-triamine] | < 30 | 3.31
CN(C)c1cnc(Nc2ccc3oc(=O)[nH]c3c2)nc1NC[C@@H]1CCCN2CCCC[C@H]12 [Compound 97, 5-(4-(((1S,9aR)-octahydro-1H-quinolizin-1-yl)methylamino)-5-(dimethylamino)pyrimidin-2-ylamino)benzo[d]oxazol-2(3H)-one] | < 30 | 5.41
Cn1nnn(-c2cc(Nc3ncc(F)c(NC[C@@H]4CCCN5CCCC[C@H]45)n3)c(F)cc2OCC(C)(C)O)c1=O [Compound 154, 1-(4-fluoro-5-((5-fluoro-4-((((1S,9aR)-octahydro-2H-quinolizin-1-yl)methyl)amino)pyrimidin-2-yl)amino)-2-(2-hydroxy-2-methylpropoxy)phenyl)-4-methyl-1,4-dihydro-5H-tetrazol-5-one] | < 30 | 0.188
Cn1nnn(-c2cc(Nc3ncc(F)c(NC[C@@H]4CCCN5CCCC[C@H]45)n3)c(F)cc2O)c1=O [Compound 147, 1-(5-((5-fluoro-4-((((1S,9aR)-octahydro-2H-quinolizin-1-yl)methyl)amino)pyrimidin-2-yl)amino)-4-fluoro-2-hydroxyphenyl)-4-methyl-1,4-dihydro-5H-tetrazol-5-one] | < 30 | 5.06
Cn1nnn(-c2cc(Nc3ncc(F)c(NC[C@@H]4CCCN5CCCC[C@H]45)n3)c(F)cc2C2CC2)c1=O [Compound 3, 1-(5-(4-(((1S,9aR)-octahydro-1H-quinolizin-1-yl)methylamino)-5-fluoropyrimidin-2-ylamino)-2-cyclopropyl-4-fluorophenyl)-4-methyl-1H-tetrazol-5(4H)-one] | < 30 | 1.68
Cc1ccc(Nc2nccc(NC[C@@H]3CCCN4CCCC[C@H]34)n2)cc1C#N [Compound 54, 5-(4-(((1S,9aR)-octahydro-1H-quinolizin-1-yl)methylamino)pyrimidin-2-ylamino)-2-methylbenzonitrile] | < 30 | 1.1
N#Cc1cnc(Nc2ccc(F)c(-n3nnnc3C3CC3)c2)nc1NC[C@@H]1CCCN2CCCC[C@H]12 [Compound 122, 4-(((1S,9aR)-octahydro-1H-quinolizin-1-yl)methylamino)-2-(3-(5-cyclopropyl-1H-tetrazol-1-yl)-4-fluorophenylamino)pyrimidine-5-carbonitrile] | < 30 | 0.0206
Cc1ccc(Nc2ncc(C(F)(F)F)c(NC[C@@H]3CCCN4CCCC[C@H]34)n2)cc1C#N [Compound 108, 5-(4-(((1S,9aR)-octahydro-1H-quinolizin-1-yl)methylamino)-5-(trifluoromethyl)pyrimidin-2-ylamino)-2-methylbenzonitrile] | < 30 | 
O=C1COc2cc(Nc3ncc(F)c(NC[C@@H]4CCCN5CCCC[C@H]45)n3)ccc2N1CC1CC1 [Compound 26, 7-(4-(((1S,9aR)-octahydro-1H-quinolizin-1-yl)methylamino)-5-fluoropyrimidin-2-ylamino)-4-(cyclopropylmethyl)-2H-benzo[b][1,4]oxazin-3(4H)-one] | < 30 | 0.169
COc1ccc(Nc2ncc(C#N)c(NC[C@@H]3CCCN4CCCC[C@H]34)n2)cc1-n1nnnc1C [Compound 113, 4-(((1S,9aR)-octahydro-1H-quinolizin-1-yl)methylamino)-2-(4-methoxy-3-(5-methyl-1H-tetrazol-1-yl)phenylamino)pyrimidine-5-carbonitrile] | < 30 | 0.018
N#Cc1cnc(Nc2ccc(Cl)c(-n3nnnc3C3CC3)c2)nc1NC[C@@H]1CCCN2CCCC[C@H]12 [Compound 124, 4-(((1S,9aR)-octahydro-1H-quinolizin-1-yl)methylamino)-2-(4-chloro-3-(5-cyclopropyl-1H-tetrazol-1-yl)phenylamino)pyrimidine-5-carbonitrile] | < 30 | 0.0031
Cn1nnn(-c2cc(Nc3ncc(C#N)c(NC[C@@H]4CCCN5CCCC[C@H]45)n3)c(F)cc2OCCO)c1=O [Compound 135, 2-((2-fluoro-4-(2-hydroxyethoxy)-5-(4-methyl-5-oxo-4,5-dihydro-1H-tetrazol-1-yl)phenyl)amino)-4-((((1S,9aR)-octahydro-2H-quinolizin-1-yl)methyl)amino)pyrimidine-5-carbonitrile] | < 30 | 
Cc1ccc(Nc2ncc(C#N)c(NC[C@@H]3CCCN4CCCC[C@H]34)n2)cc1C#N [Compound 119, 4-(((1S,9aR)-octahydro-1H-quinolizin-1-yl)methylamino)-2-(3-cyano-4-methylphenylamino)pyrimidine-5-carbonitrile] | < 30 | 0.0357
COc1cc(Nc2nccc(NC[C@@H]3CCCN4CCCC[C@H]34)n2)cc(-n2nnnc2C)c1 [Compound 52, N4-(((1S,9aR)-octahydro-1H-quinolizin-1-yl)methyl)-N2-(3-methoxy-5-(5-methyl-1H-tetrazol-1-yl)phenyl)pyrimidine-2,4-diamine] | < 30 | 0.442
Cc1nnnn1-c1cc(Nc2ncc(C(N)=O)c(NC[C@@H]3CCCN4CCCC[C@H]34)n2)ccc1F [Compound 126, 4-(((1S,9aR)-octahydro-1H-quinolizin-1-yl)methylamino)-2-(4-fluoro-3-(5-methyl-1H-tetrazol-1-yl)phenylamino)pyrimidine-5-carboxamide] | < 30 | 1.6
Cc1nnnn1-c1ccc(F)c(Nc2ncc(C#N)c(NC[C@@H]3CCCN4CCCC[C@H]34)n2)c1 [Compound 118, 4-(((1S,9aR)-octahydro-1H-quinolizin-1-yl)methylamino)-2-(2-fluoro-5-(5-methyl-1H-tetrazol-1-yl)phenylamino)pyrimidine-5-carbonitrile] | < 30 | 0.076
COc1cc(Nc2ncc(C#N)c(NC[C@@H]3CCCN4CCCC[C@H]34)n2)cc(OC)c1 [Compound 121, 4-(((1S,9aR)-octahydro-1H-quinolizin-1-yl)methylamino)-2-(3,5-dimethoxyphenylamino)pyrimidine-5-carbonitrile] | < 30 | 0.141
